# Results: patent publication US20250387481A1, “PRE-TREATED T CELLS FOR USE AS A MEDICAMENT” (STICHTING HET NEDERLANDS KANKER INSTITUUT-ANTONI VAN …, priority 2022, published 2025)
# Experiments:
# KB1P organoids = test: Co-culture of pre-treated splenic T cells with KB1P organoids (MTT, cleaved-caspase 3); type: cell-based, mouse; details: LCKi 10 μmol/L
# [1] = test system: MMTV-PyMT organoids expressing OVA; test: Co-culture of OT I T cells with MMTV-PyMT organoids expressing OVA (cleaved-caspase 3); type: cell-based, mouse; details: LCKi 10 μmol/L
# Method: Experiments were approved by the Animal Welfare Committee of the Netherlands Cancer Institute and were performed in accordance with national guidelines. Mice were housed in individually ventilated cage (IVC) systems under specific pathogen-free conditions and received chow and water ad libitum. FVB/NRj females (Janvier), C57BL/6-Tg (TcraTcrb) 1100Mjb/J females (OT I mice, Jackson laboratory), and ROSA26mTmG FVB females (NKI) were used at 8-20 weeks of age at the time of fat pad injection of tumor organoids or spleen isolation.
# For T cells isolated from mouse mammary tumors, T cells were directly co-cultured with tumor organoids after FACS isolation. For T cells isolated from the spleen, T cells were treated for 72 h with PBS or with docetaxel (docetaxel 10 nmol/L), in the presence or absence of an LCKi (10 μmol/L, Merck Millipore, Cat. No. 213743-31-8). To evaluate the docetaxel-specificity of our observations, T cells were treated with paclitaxel 10 nmol/L or carboplatin 50 μmol/L for 72 h. Subsequently, T cells were collected and washed 3 times in PBS to remove residual chemotherapy or LCKi.
# Organoids were fixed in 4% paraformaldehyde in PBS for 20 min at room temperature, followed by permeabilization in 0.2% TritonX-100 in PBS for 15 min at room temperature. […]
# [2] = test system: A375 (melanoma), EGL1 (hepatobiliary cancer) and MDA-MB-231 (breast cancer); KB1P organoids; test: Co-culture of cancer cells or KB1P organoids with T cells pretreated with vinblastine; type: cell-based, human; details: Jurkat or mouse splenic T cells pretreated with vinblastine; MTT, cleaved caspase 3
# From the text: Data are shown for three different cell lines derived from human cancer, namely A375 (melanoma), EGL1 (hepatobiliary cancer) and MDA-MB-231 (breast cancer). Organoid apoptosis (determined by cleaved caspase 3 staining) in breast cancer mouse KB1P organoids following co-culture with mouse splenic T cells pretreated with control, vinblastine or colchicine is also shown in FIG. 18. Data are presented as mean with SEM. N=3 biological repeats per repeat.
SMILES,effect of LCK inhibition on docetaxel-increased cytotoxic activity of CD4 or CD8 T cells (KB1P organoids),killing of OVA-expressing organoids by OT I T cells [1],T cell mediated cancer cell killing [2]
Nc1ncnc2c1c(-c1ccc(Oc3ccccc3)cc1)cn2C1CCCC1 [LCKi],did not impair,reduced killing,–
"CC[C@]1(O)C[C@@H]2CN(CCc3c([nH]c4ccccc34)[C@@](C(=O)OC)(c3cc4c(cc3OC)N(C)[C@H]3[C@@](O)(C(=O)OC)[C@H](OC(C)=O)[C@]5(CC)C=CCN6CC[C@]43[C@@H]65)C2)C1 [Vinblastine, vinblastine]",–,–,induces T cell mediated cancer cell killing
